From PMC6934184, “Selective DNA-PKcs inhibition extends the therapeutic index of localized radiotherapy and chemotherapy” (The Journal of Clinical Investigation, 2019)

Biological target: T1, MAP4K2 (GCK) (Homo sapiens, UniProt Q12851)
T1 construct: purchased Thermo Fisher Scientific (Life Technologies) SelectScreen
Assay: SelectScreen Z'LYTE
Format: biochemical
How it was run: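 NU5455 was profiled across the SelectScreen Broad panel of kinase activity and binding assays. Z'LYTE reactions such as CSF1R ran at apparent Km ATP, while the Adapta CAMK1 assay used ATP listed as 10. Values are given as percent.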

T1 sequence (Q12851 whole entry): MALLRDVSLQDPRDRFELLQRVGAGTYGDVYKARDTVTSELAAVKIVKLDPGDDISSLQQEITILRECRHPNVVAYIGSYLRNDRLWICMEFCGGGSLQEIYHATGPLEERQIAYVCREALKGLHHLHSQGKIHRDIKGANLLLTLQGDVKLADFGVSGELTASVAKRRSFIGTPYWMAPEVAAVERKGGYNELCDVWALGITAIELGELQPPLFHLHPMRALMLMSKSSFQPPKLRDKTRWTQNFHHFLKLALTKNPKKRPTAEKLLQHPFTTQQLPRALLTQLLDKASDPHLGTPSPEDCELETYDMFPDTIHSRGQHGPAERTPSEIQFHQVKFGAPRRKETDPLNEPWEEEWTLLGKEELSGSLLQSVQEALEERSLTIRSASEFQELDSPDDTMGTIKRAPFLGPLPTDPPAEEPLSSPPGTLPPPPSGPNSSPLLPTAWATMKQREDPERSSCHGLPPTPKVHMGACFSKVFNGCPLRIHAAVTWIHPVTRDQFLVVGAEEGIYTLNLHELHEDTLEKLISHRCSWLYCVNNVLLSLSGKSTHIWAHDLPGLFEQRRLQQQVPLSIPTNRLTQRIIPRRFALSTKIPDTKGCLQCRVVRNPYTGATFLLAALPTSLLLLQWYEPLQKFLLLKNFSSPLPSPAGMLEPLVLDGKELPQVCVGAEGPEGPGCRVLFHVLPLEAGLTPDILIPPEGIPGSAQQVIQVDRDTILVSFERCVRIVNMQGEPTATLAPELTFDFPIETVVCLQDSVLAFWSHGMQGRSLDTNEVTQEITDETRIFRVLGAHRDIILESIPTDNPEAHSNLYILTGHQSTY

CN(C(=O)CN1CCOCC1)c1ccc2sc3c(-c4cccc5c(=O)cc(N6CC7CCC(C6)O7)oc45)cccc3c2c1 [NU5455]
inhibition at 1 µM: 2.7%
